Type in all cases: cell-based
One test relates to A2780 cells. Kind of test: Antiproliferation assay A2780 (Assay 7). On the procedure: (§1) Assessment of the Anti-Proliferative Effect of Compounds in Different Cell Lines
(§2) The impact of compounds on the proliferation of different cell lines was assessed using the CellTiter-Glo® Luminescent Cell Viability reagent from Promega (G7573).
(§3) In parallel, cells were plated in a reference (day 0) plate for time zero determination. Cells were incubated in a humidified incubator at 37° C. overnight.
(§4) Rim wells were excluded. The cells were incubated for 72 h hours in a humidified incubator at 37° C. The day 0 plate was measured by adding 30 μL/well of CTG solution (CellTiter-Glo® Luminescent Cell Viability reagent, Promega G7573) to time zero wells in the reference plate followed by a 10 minutes incubation and luminescence reading at 0.1 ms. using the PHERAstar FS microplate reader (BMG Labtech).
(§5) After 72 h incubation, the treated plates were measured in the same way as the day 0 plate mentioned above. The Bella DRC Master Sheet was used to calculate IC50s, with CI=day 0 values and C0=DMSO control values.

For a further test, the system named is SK-BR-3 cells. Kind of test: Antiproliferation assay SK-BR-3 (Assay 7). Conditions: Homo sapiens, read-out: Antiproli SK-BR-3 IC50 median. As to the method:
as §1, §2, §3, §4, §5

The subject of another test is A-431 cells. Kind of test: Antiproliferation assay A-431 (Assay 7). Conditions: Homo sapiens, read-out: Antiproli A-431 IC50 median. As to the method: as §1, §2, §3, §4, §5
Another test relates to PA-1 cells. As to the kind of experiment: Antiproliferation assay PA-1 (Assay 7). The following applies: Homo sapiens, read-out: Antiproli PA-1 IC50 median. On the procedure: as §1, §2, §3, §4, §5
Another test has as its system SK-MEL-2 cells. Kind of test: Antiproliferation assay SK-MEL-2 (Assay 7). The following applies: Homo sapiens, read-out: Antiproli SK-MEL-2 IC50 median. Summed up: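 Cells were plated overnight at 37° C, then compound-treated for 72 h. Viability was measured by CellTiter-Glo luminescence.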
[1] abbreviates: Homo sapiens, A2780, 72 h, CellTiter-Glo, read-out: Antiproli A2780 IC50 median.
The mark [2] stands for this setting: Homo sapiens, A2780, 72 h, read-out: Antiproli A2780 IC50 median, 72 h, CellTiter-Glo.

Structures can show the parent of a compound that is named as a salt. Where two headings read alike, the source gives them in different places.

Consider `Cc1c2c(nn1C)C(C)OCCCCn1c(C(=O)O)c(CCCOc3cccc4ccccc34)c3cccc-2c31` (racemic) [Example 1, (rac)-2,3,15-trimethyl-7-[3-(naphthalen-1-yloxy)propyl]-2,10,11,12,13,15-hexahydropyrazolo[4′,3′:9,10][1,6]oxazacycloundecino[8,7,6-hi]indole-8-carboxylic Acid (Mixture of Stereoisomers)], for which the IC50 in the test on A2780 cells (setting [1]) was determined as 19500 nM.

Turning to `CCc1c2c(nn1C)C(CCN1CCOCC1)OCCCCn1c(C(=O)O)c(CCCOc3cccc4ccccc34)c3ccc(F)c-2c31` (racemic) [Example 10, (rac)-3-ethyl-4-fluoro-2-methyl-15-[2-(morpholin-4-yl)ethyl]-7-[3-(naphthalen-1-yloxy)propyl]-2,10,11,12,13,15-hexahydropyrazolo[4′,3′:9,10][1,6]oxazacycloundecino[8,7,6-hi]indole-8-carboxylic Acid], the half-inhibitory concentration (IC50) in the test on A2780 cells (setting [1]) amounted to 3430 nM.

Regarding `Cc1c2c(nn1C)C(CCN1CCOCC1)OCCCCn1c(C(=O)O)c(CCCOc3cccc4cc(F)ccc34)c3ccc(Cl)c-2c31` (racemic) [Example 16, (rac)-4-chloro-7-{3-[(6-fluoronaphthalen-1-yl)oxy]propyl}-2,3-dimethyl-15-[2-(morpholin-4-yl)ethyl]-2,10,11,12,13,15-hexahydropyrazolo[4′,3′:9,10][1,6]oxazacycloundecino[8,7,6-hi]indole-8-carboxylic Acid], the IC50 with SK-BR-3 cells (SK-BR-3, 72 h, CellTiter-Glo) came out at 108 nM.

Regarding `CCc1c2c(nn1C)C(CCN1CC(F)(F)C1)OCCCCn1c(C(=O)O)c(CCCOc3cccc4cc(F)ccc34)c3ccc(Cl)c-2c31` (single isomer, unassigned; (+)) [Example 78, (+)-4-chloro-15-[2-(3,3-difluoroazetidin-1-yl)ethyl]-3-ethyl-7-{3-[(6-fluoronaphthalen-1-yl)oxy]propyl}-2-methyl-2,10,11,12,13,15-hexahydropyrazolo[4′,3′:9,10][1,6]oxazacycloundecino[8,7,6-hi]indole-8-carboxylic Acid—N-ethylethanamine Salt], the IC50 in the test on A-431 cells (A-431, 72 h, CellTiter-Glo) turned out to be 126 nM; in the test with PA-1 cells (PA-1, 72 h, CellTiter-Glo), 127 nM; in the test on SK-MEL-2 cells (SK-MEL-2, 72 h, CellTiter-Glo), 197 nM.

With `CCc1c2c(nn1C)C(CCN1CCOCC1)OCCCCn1c(C(=O)O)c(CCCOc3cccc4ccccc34)c3ccc(F)c-2c31` (single isomer, unassigned; enantiomer 1) [Example 11, 3-ethyl-4-fluoro-2-methyl-15-[2-(morpholin-4-yl)ethyl]-7-{3-[(naphthalen-1-yl)oxy]propyl}-2,10,11,12,13,15-hexahydropyrazolo[4′,3′:9,10][1,6]oxazacycloundecino[8,7,6-hi]indole-8-carboxylic Acid—N-ethylethanamine Salt (Enantiomer 1)], in the test with A2780 cells (setting [2]), the concentration for half-maximal inhibition (IC50) is 779 nM.

In the case of `Cc1c2c(nn1C)C(CCN1CCOCC1)OCCCCn1c(C(=O)O)c(CCCOc3cccc4cc(F)ccc34)c3ccc(F)c-2c31` (single isomer, unassigned; enantiomer 1) [Example 20, 4-fluoro-7-{3-[(6-fluoronaphthalen-1-yl)oxy]propyl}-2,3-dimethyl-15-[2-(morpholin-4-yl)ethyl]-2,10,11,12,13,15-hexahydropyrazolo[4′,3′:9,10][1,6]oxazacycloundecino[8,7,6-hi]indole-8-carboxylic Acid—N-ethylethanamine (Enantiomer 1)], the half-inhibitory concentration (IC50) with A-431 cells (A-431, 72 h) was determined as 462 nM; with SK-BR-3 cells (SK-BR-3, 72 h) it was 173 nM; in the test on PA-1 cells (PA-1, 72 h) it was 304 nM; in the test with SK-MEL-2 cells (SK-MEL-2, 72 h), 607 nM.

With `CCc1c2c(nn1C)C(CCN1CCOCC1)OCCCCn1c(C(=O)O)c(CCCOc3cccc4cc(F)ccc34)c3ccc(F)c-2c31` (single isomer, unassigned; enantiomer 1) [Example 50, (+)-3-ethyl-4-fluoro-7-{3-[(6-fluoronaphthalen-1-yl)oxy]propyl}-2-methyl-15-[2-(morpholin-4-yl)ethyl]-2,10,11,12,13,15-hexahydropyrazolo[4′,3′:9,10][1,6]oxazacycloundecino[8,7,6-hi]indole-8-carboxylic Acid (Enantiomer 1)], the half-maximal inhibitory concentration (IC50) with A-431 cells (A-431, 72 h, CellTiter-Glo) was determined as 336 nM; in the test on PA-1 cells (PA-1, 72 h, CellTiter-Glo) it was 222 nM; in the test with SK-MEL-2 cells (SK-MEL-2, 72 h, CellTiter-Glo), 505 nM.

With `CCc1c2c(nn1C)C(CCC1CCOCC1)OCCCCn1c(C(=O)O)c(CCCOc3cccc4cc(F)ccc34)c3ccc(Cl)c-2c31` (single isomer, unassigned; enantiomer 1) [Example 63, (+)-4-chloro-3-ethyl-7-{3-[(6-fluoronaphthalen-1-yl)oxy]propyl}-2-methyl-15-[2-(oxan-4-yl)ethyl]-2,10,11,12,13,15-hexahydropyrazolo[4′,3′:9,10][1,6]oxazacycloundecino[8,7,6-hi]indole-8-carboxylic Acid—N-ethylethanamine Salt (Enantiomer 1)], the half-maximal inhibitory concentration (IC50) amounted to 272 nM with A-431 cells (A-431, 72 h); 204 nM in the test with PA-1 cells (PA-1, 72 h); 324 nM with SK-MEL-2 cells (SK-MEL-2, 72 h).

For the molecule `CCc1c2c(nn1C)C(CCC(C)(C)O)OCCCCn1c(C(=O)O)c(CCCOc3cccc4cc(F)ccc34)c3ccc(Cl)c-2c31` (single isomer, unassigned; enantiomer 1) [Example 75, (+)-4-chloro-3-ethyl-7-{3-[(6-fluoronaphthalen-1-yl)oxy]propyl}-15-(3-hydroxy-3-methylbutyl)-2-methyl-2,10,11,12,13,15-hexahydropyrazolo[4′,3′:9,10][1,6]oxazacycloundecino[8,7,6-hi]indole-8-carboxylic Acid—N-ethylethanamine Salt (Enantiomer 1)], the IC50 in the test on A-431 cells (A-431, 72 h, CellTiter-Glo) was 135 nM; with PA-1 cells (PA-1, 72 h, CellTiter-Glo), 118 nM; in the test with SK-MEL-2 cells (SK-MEL-2, 72 h, CellTiter-Glo), 170 nM.

On to `Cc1c2c(nn1C)C(C)OCCCCn1c(C(=O)O)c(CCCOc3cccc4ccccc34)c3cccc-2c31` (single isomer, unassigned; stereoisomer 1) [Example 2, 2,3,15-trimethyl-7-[3-(naphthalen-1-yloxy)propyl]-2,10,11,12,13,15-hexahydropyrazolo[4′,3′:9,10][1,6]oxazacycloundecino[8,7,6-hi]indole-8-carboxylic Acid Trifluoroacetic Acid Salt (Stereoisomer 1)], for which the concentration for half-maximal inhibition (IC50) in the test with A2780 cells (read-out: Antiproli A2780 IC50 median, 72 h, CellTiter-Glo, listed as 02) came out at 22800 nM.

For the molecule `Cc1c2c(nn1C)C(C)OCCCCn1c(C(=O)O)c(CCCOc3cccc4ccccc34)c3cccc-2c31` (single isomer, unassigned; stereoisomer 2) [Example 3, 2,3,15-trimethyl-7-[3-(naphthalen-1-yloxy)propyl]-2,10,11,12,13,15-hexahydropyrazolo[4′,3′:9,10][1,6]oxazacycloundecino[8,7,6-hi]indole-8-carboxylic Acid Trifluoroacetic Acid Salt (Stereoisomer 2)], in the test with A2780 cells (setting [2]), the IC50 stood at 29900 nM.

What is called IC50 is the concentration needed to halve the response being measured.
